In article PMC7277544, “A Fluorescence-Based Method to Measure ADP/ATP Exchange of Recombinant Adenine Nucleotide Translocase in Liposomes” (Biomolecules, 2020):

Biological target: T1, adenine nucleotide translocase 1 (ANT1) (Mus musculus, UniProt P48962)
T1 construct: gene Slc25a4; recombinant murine ANT1 from E. coli inclusion bodies, reconstituted into liposomes
T1 sequence (P48962 2-298): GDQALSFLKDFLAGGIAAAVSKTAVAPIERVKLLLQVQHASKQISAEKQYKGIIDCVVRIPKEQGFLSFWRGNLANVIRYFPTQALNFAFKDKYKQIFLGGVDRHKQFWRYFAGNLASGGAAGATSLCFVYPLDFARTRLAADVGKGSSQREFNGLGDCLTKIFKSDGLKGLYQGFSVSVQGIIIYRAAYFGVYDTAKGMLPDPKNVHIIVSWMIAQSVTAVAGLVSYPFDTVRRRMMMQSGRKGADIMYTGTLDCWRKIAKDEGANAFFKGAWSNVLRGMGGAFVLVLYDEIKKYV
Test: 3H-ATP uptake into ANT1 proteoliposomes (transport rate)
Assay type: biochemical

Nc1ncnc2c1ncn2[C@@H]1O[C@H](COP(=O)(O)OP(=O)(O)OP(=O)(O)O)[C@@H](O)[C@H]1O [ATP, adenosine triphosphate]
3H-ATP uptake into ANT1 proteoliposomes (transport rate): 2.90 ± 0.47 mmol/min/g
